Assay results as given in the NIST ThermoML archive (doi:10.1016/j.jct.2015.05.006).
Numbers after ± are expanded uncertainties.

What was measured:
[1] = relative permittivity at various frequencies (dimensionless); xn = mol fraction of the nth substance listed; conditions: Liquid, Frequency=1 MHz, Parallel plate capacitor, x1 = 1
[2] = xn = mol fraction of the nth substance listed; conditions: Liquid, Vibrating tube method, x1 = 1
[3] = 101.33 kPa, Liquid, Vibrating tube method
[4] = relative permittivity at various frequencies (dimensionless); conditions: Liquid, Frequency=1 MHz, Parallel plate capacitor

## C1CCCCC1 [cyclohexane] + COCCOC
[1]; 288.15 K, 96.6 kPa
  relative permittivity: 2.04 ± 0.02
[1]; 298.15 K, 96.6 kPa
  relative permittivity: 2.03 ± 0.02
[1]; 308.15 K, 96.6 kPa
  relative permittivity: 2.02 ± 0.02
[2]; 288.15 K, 96.6 kPa
  mass density: 783.29 ± 1 kg/m3
[2]; 298.15 K, 96.6 kPa
  mass density: 773.86 ± 1 kg/m3
[2]; 308.15 K, 96.6 kPa
  mass density: 764.38 ± 1 kg/m3

## CCCCCCCCCCCC [dodecane] + COCCOC
[1]; 288.15 K, 97 kPa
  relative permittivity: 2.04 ± 0.02
[1]; 298.15 K, 97 kPa
  relative permittivity: 2.02 ± 0.02
[1]; 308.15 K, 97 kPa
  relative permittivity: 2.01 ± 0.02
[2]; 288.15 K, 97 kPa
  mass density: 752.44 ± 1 kg/m3
[2]; 298.15 K, 97 kPa
  mass density: 745.29 ± 1 kg/m3
[2]; 308.15 K, 97 kPa
  mass density: 737.93 ± 1 kg/m3

## CCCCCCCC [octane]
[3]; 288.15 K
  mass density: 706.6 ± 1 kg/m3
[3]; 298.15 K
  mass density: 698.58 ± 1 kg/m3
[3]; 308.15 K
  mass density: 690.48 ± 1 kg/m3
[4]; 288.15 K, 97.1 kPa
  relative permittivity: 1.97 ± 0.02
[4]; 298.15 K, 97.1 kPa
  relative permittivity: 1.96 ± 0.02
[4]; 308.15 K, 97.1 kPa
  relative permittivity: 1.94 ± 0.02

## CCCCCCCC [octane] + COCCOC
[1]; 288.15 K, 97.1 kPa
  relative permittivity: 1.97 ± 0.02
[1]; 298.15 K, 97.1 kPa
  relative permittivity: 1.96 ± 0.02
[1]; 308.15 K, 97.1 kPa
  relative permittivity: 1.94 ± 0.02
[2]; 288.15 K, 97.1 kPa
  mass density: 706.6 ± 1 kg/m3
[2]; 298.15 K, 97.1 kPa
  mass density: 698.58 ± 1 kg/m3
[2]; 308.15 K, 97.1 kPa
  mass density: 690.48 ± 1 kg/m3

## CCCCCC [hexane]
[3]; 288.15 K
  mass density: 664.13 ± 1 kg/m3
[3]; 298.15 K
  mass density: 655.14 ± 1 kg/m3
[3]; 308.15 K
  mass density: 646.1 ± 1 kg/m3
[4]; 288.15 K, 95.2 kPa
  relative permittivity: 1.91 ± 0.02
[4]; 298.15 K, 95.2 kPa
  relative permittivity: 1.89 ± 0.02
[4]; 308.15 K, 95.2 kPa
  relative permittivity: 1.88 ± 0.02

## C1CCCCC1 [cyclohexane]
[3]; 288.15 K
  mass density: 783.29 ± 1 kg/m3
[3]; 298.15 K
  mass density: 773.86 ± 1 kg/m3
[3]; 308.15 K
  mass density: 764.38 ± 1 kg/m3
[4]; 288.15 K, 96.6 kPa
  relative permittivity: 2.04 ± 0.02
[4]; 298.15 K, 96.6 kPa
  relative permittivity: 2.03 ± 0.02
[4]; 308.15 K, 96.6 kPa
  relative permittivity: 2.02 ± 0.02

## CCCCCC [hexane] + COCCOC
[1]; 288.15 K, 95.2 kPa
  relative permittivity: 1.91 ± 0.02
[1]; 298.15 K, 95.2 kPa
  relative permittivity: 1.89 ± 0.02
[1]; 308.15 K, 95.2 kPa
  relative permittivity: 1.88 ± 0.02
[2]; 288.15 K, 95.2 kPa
  mass density: 664.13 ± 1 kg/m3
[2]; 298.15 K, 95.2 kPa
  mass density: 655.14 ± 1 kg/m3
[2]; 308.15 K, 95.2 kPa
  mass density: 646.1 ± 1 kg/m3

## COCCOC [1,2-dimethoxyethane]
[3]; 288.15 K
  mass density: 872.06 ± 1 kg/m3
[3]; 298.15 K
  mass density: 861.17 ± 1 kg/m3
[3]; 308.15 K
  mass density: 850.13 ± 1 kg/m3
[4]; 288.15 K, 96.5 kPa
  relative permittivity: 7.41 ± 0.07
[4]; 298.15 K, 96.5 kPa
  relative permittivity: 7.07 ± 0.07
[4]; 308.15 K, 96.5 kPa
  relative permittivity: 6.75 ± 0.07

## CCCCCCCCCCCC [dodecane]
[3]; 288.15 K
  mass density: 752.44 ± 1 kg/m3
[3]; 298.15 K
  mass density: 745.29 ± 1 kg/m3
[3]; 308.15 K
  mass density: 737.93 ± 1 kg/m3
[4]; 288.15 K, 97 kPa
  relative permittivity: 2.04 ± 0.02
[4]; 298.15 K, 97 kPa
  relative permittivity: 2.02 ± 0.02
[4]; 308.15 K, 97 kPa
  relative permittivity: 2.01 ± 0.02
